Test results: article PMC3073003, “Peptide-Modified Surfaces for Enzyme Immobilization” (PLoS ONE, 2011)
Ends that are not written are not given here.

How the values were obtained:
[1] = target: T1, β-galactosidase (β-Gal) (Escherichia coli, UniProt P00722); format: biochemical, E. coli; parameters: biotin (chemical label by Sulfo-NHS-biotin on amines, about two per enzyme); purchased Sigma (St. Louis, MO); conditions: for Specific activity (Norm.): total bound enzyme activity divided by total binding intensity; for Specific activity (Norm.) / Activity (Norm.): normalized to amine surface 8; for Activity (Norm.): β-Gal immobilized on surface-modified microwells, 25°C
Method: Figure 1 Enzyme immobilization on peptide-modified surfaces. (a) The overall process for conjugating peptides to aminated microwells through specific reactions between C-terminal cysteines and maleimide-activated surfaces. (b) Activity of β-Gal immobilized on different surfaces. 25 nM β-Gal is first incubated with modified microwells for one hour and then enzyme activity is measured at 25°C as a function of time using 100 µM Resorufin β-D-galactopyranoside as the substrate. YHNN, QYHH, RVFK, PASM and EFSN represent β-Gal bound to various peptide-modified surfaces (see text). […] AMINE represents enzyme bound noncovalently to an aminated surface. […] Each subunit is labeled with a unique color showing the symmetry of the β-Gal structure. […] The substrate-binding sites of β-Gal are circled with right color (Glu461, Met502, Tyr503 and Glu537) according to reference 16.
(§1) Peptides were conjugated to aminated microwell surfaces through the specific reaction between C-terminal cysteines and the maleimide-activated surfaces, as shown in Figure 1a. […] The microwell plate was then briefly washed with pure water three times. […] The reaction was incubated for 4 hours at room temperature, in the dark. After the conjugation reaction was complete, the microwells were washed for 5 minutes in 1× TBST, three times, followed by three washes in water. To immobilize the enzyme on peptide-modified surfaces, 30 µL of 25 nM biotin-labeled β-Gal was incubated in the peptide-modified microwells for two hours in 10 mM phosphate buffer, pH 7.3 with 100 µM MgCl2 and 0.05% Tween 20 (v/v%), at room temperature. The microwells were washed for 5 minutes in 1× TBST, three times, followed by three washes in phosphate buffer. […] Figures S8–10 in File S1 show the detailed optimization procedures for peptide-modified surfaces.
(§2) First, 30 µL of 2 mg/mL BS^3 prepared in 1× PBS, pH 7.4 was incubated with the aminated microwells for half an hour. Then, the microwells were briefly washed with nanopure water, three times, to remove unreacted BS^3 molecules. Finally, 30 µL of biotin-labeled β-Gal was incubated with the microwells for one hour, which were then washed three times in 1× TBST, followed by three washes in phosphate buffer.
(§3) The activity assay of surface-bound β-Gal was performed on a SpectraMax M5 96-well plate reader (Molecular Device, Sunnyvale, CA) by adding 100 µL of 100 µM RBG into the wells. The relative amount of surface-bound β-Gal was measured using an enzyme linked immunosorbant assay (ELISA). β-Gal was first labeled with biotin. Alkaline phosphatase-conjugated strepavidin (0.4 mg/ml) was diluted at 1∶1000 in 1× PBS, 0.05% (v/v) Tween 20. Next, 30 µL of streptavidin solution was added to the β-Gal-bound wells and incubated for one hour at room temperature. The streptavidin solution was then removed and the plate was washed three times with TBST buffer and three times with TBS buffer. Then, 200 µL of 1 mM PNPP was added to each well. The alkaline phosphatase activity was subsequently measured by reading the absorbance increase at 405 nm on the M5 plate reader. The β-Gal binding level was determined from the activity of alkaline phosphatase-conjugated strepavidin bound to the wells.

[2] = target: T1, β-galactosidase (β-Gal); format: binding, E. coli; parameters: biotin (chemical label by Sulfo-NHS-biotin on amines, about two per enzyme); purchased Sigma (St. Louis, MO); conditions: for Binding affinity (Norm.): β-Gal bound to surface-modified microwells, 25 nM biotin-labeled β-Gal, ELISA, normalized to amine surface 8
Method: as §1, §2, §3

[3] = target: T1, β-galactosidase (β-Gal); format: binding, E. coli; parameters: biotin (chemical label by Sulfo-NHS-biotin on amines, about two per enzyme); purchased Sigma (St. Louis, MO); conditions: for Enzyme binding (Norm.): microarray of 10,000 peptides, selection described in reference [13]
Text: (§4) Peptide microarrays containing 132, 20-mer single-point variants of the YHNN peptide were generated using our established, in-house printing method. […] Synthesized peptides (70% purity) were purchased from Sigma. The last three carboxy-terminal positions of each peptide constituted a glycine-serine-cysteine (GSC) linker, used for conjugating the peptides to amino-silane surfaces through the C-terminal cysteine via a maleimide linker, Sulfo-SMCC (Pierce, Rockford, IL). A Telechem Nanoprint60 was used to spot approximately 500 pL of 1 mg/mL peptide prepared in 1× PBS for each feature on glass slides with 48 Telechem series SMP2 style 946 titanium pins.
(§5) Enzyme assays on the microarrays were performed as described in the previous work. […] The array was incubated with a solution containing 10 nM Alexa™ 647- labeled β-Gal for two hours, allowing the enzyme to bind with peptides on the array surface. After washing off unbound enzymes, a fluorescent substrate analogue (FDG) was mixed with a 5% PVA solution and spin-coated onto the array surface for monitor the enzyme activity. The FDG molecules (substrate) in the PVA layer were converted to fluorescein (product), by the active enzymes bound to specific peptides on the array surface. The fluorescein molecules remained localized because of the PVA viscosity. Both the relative binding level of Alexa™ 647-labeled enzyme and the relative amount of fluorescein produced during the incubation period were determined by dual color scanning. Each array experiment was repeated at least three times under the same conditions for statistical analysis.

[4] = target: T1, β-galactosidase (β-Gal); format: biochemical, E. coli; parameters: biotin (chemical label by Sulfo-NHS-biotin on amines, about two per enzyme); purchased Sigma (St. Louis, MO); conditions: for Enzyme activity (Norm.) / Surface specific activity (Norm.): microarray of 10,000 peptides; for Enzyme activity (Norm.): selection described in reference [13]; for Surface specific activity (Norm.): total bound enzyme activity divided by total binding intensity
Text: as §4, §5

[5] = target: T1, β-galactosidase (β-Gal); assay: biochemical; format: binding, E. coli; parameters: biotin (chemical label by Sulfo-NHS-biotin on amines, about two per enzyme); purchased Sigma (St. Louis, MO)
Method: as §3

[6] = target: T1, β-galactosidase (β-Gal); format: biochemical, E. coli; parameters: biotin (chemical label by Sulfo-NHS-biotin on amines, about two per enzyme); purchased Sigma (St. Louis, MO); conditions: read-out: apparent Km of β-Gal; peptide-modified iodoacetyl resin or free enzyme, ~150 pM enzyme, RBG 3-400 µM, 25 °C
Method: The determination of the enzyme kinetic constants (KM and kcat) of immobilized β-Gal was performed on peptide-modified iodoacetyl polyacrylamide resin (UltraLink, Pierce, 50–80 µm diameter). To modify the bead surface with peptide, peptide solutions were incubated with iodoacetyl resin for one hour in 50 mM Tris buffer, 5 mM EDTA, pH 8.5. The unreacted iodacetyl groups were then capped with 50 mM L-cysteine. The amount of peptide immobilized on a bead surface was determined by comparing the peptide concentration of the unbound fraction (the remaining free peptide concentration after binding to the surface) to the starting concentration through absorbance changes at 280 nm. β-Gal was captured on the peptide-modified beads using the same protocol which immobilized the enzyme in the microwells, above. The amount of bead-immobilized β-Gal was measured by comparing the protein concentration of the unbound fraction to the starting protein concentration, determined at 280 nm. KM and Vmax (and thus kcat, using the total enzyme concentration) of β-Gal immobilized on peptide-modified beads were determined by fitting the activity vs. substrate concentration curves in the GraphPad program using the fitting equation of “Y = Vmax*X/(Km+X)”.
Colored curves: Curve fit determining the Michaelis constants of β-Gal immobilized […]
The enzyme activities are measured as a function of the concentration of […]

[7] = target: T1, β-galactosidase (β-Gal)
Method: Figure 2 Point-variant screening of a lead peptide, YHNN. β-Gal was bound to a microarray containing 132 YHNN variants and its activity was measured. (a) The activity of bound β-Gal on microarrays as a function of the amount of enzyme bound to a particular variant feature at room temperature. […] All data is normalized to the binding and activity values for the lead peptide, YHNN. (b) Thermal-stability assay. β-Gal was bound to the microarray containing YHNN variants as in (a) at room temperature, followed by incubation in phosphate buffer at 55°C for one hour. Enzyme activity was then assayed at room temperature. […] (c) pH activity range assay. YHNN variant microarrays were bound to β-Gal as in (a) and incubated at room temperature in buffers with pHs ranging from 6 to 9 for one hour and then assayed for activity at the pH of incubation.
The library of single-point variants was also screened for enhanced thermal or pH stability of immobilized β-Gal. For thermal stability screening, enzyme was bound to microarrays containing the 132 single-point variants, at room temperature, and then the arrays were incubated at 55°C for one hour and assayed for activity at room temperature.

[8] = peptide conjugated to aminated microwell
[9] = peptide-modified aminated microwell
[10] = microarray of 132 single-point variants, room temperature

T1 sequence (P00722 2-1024): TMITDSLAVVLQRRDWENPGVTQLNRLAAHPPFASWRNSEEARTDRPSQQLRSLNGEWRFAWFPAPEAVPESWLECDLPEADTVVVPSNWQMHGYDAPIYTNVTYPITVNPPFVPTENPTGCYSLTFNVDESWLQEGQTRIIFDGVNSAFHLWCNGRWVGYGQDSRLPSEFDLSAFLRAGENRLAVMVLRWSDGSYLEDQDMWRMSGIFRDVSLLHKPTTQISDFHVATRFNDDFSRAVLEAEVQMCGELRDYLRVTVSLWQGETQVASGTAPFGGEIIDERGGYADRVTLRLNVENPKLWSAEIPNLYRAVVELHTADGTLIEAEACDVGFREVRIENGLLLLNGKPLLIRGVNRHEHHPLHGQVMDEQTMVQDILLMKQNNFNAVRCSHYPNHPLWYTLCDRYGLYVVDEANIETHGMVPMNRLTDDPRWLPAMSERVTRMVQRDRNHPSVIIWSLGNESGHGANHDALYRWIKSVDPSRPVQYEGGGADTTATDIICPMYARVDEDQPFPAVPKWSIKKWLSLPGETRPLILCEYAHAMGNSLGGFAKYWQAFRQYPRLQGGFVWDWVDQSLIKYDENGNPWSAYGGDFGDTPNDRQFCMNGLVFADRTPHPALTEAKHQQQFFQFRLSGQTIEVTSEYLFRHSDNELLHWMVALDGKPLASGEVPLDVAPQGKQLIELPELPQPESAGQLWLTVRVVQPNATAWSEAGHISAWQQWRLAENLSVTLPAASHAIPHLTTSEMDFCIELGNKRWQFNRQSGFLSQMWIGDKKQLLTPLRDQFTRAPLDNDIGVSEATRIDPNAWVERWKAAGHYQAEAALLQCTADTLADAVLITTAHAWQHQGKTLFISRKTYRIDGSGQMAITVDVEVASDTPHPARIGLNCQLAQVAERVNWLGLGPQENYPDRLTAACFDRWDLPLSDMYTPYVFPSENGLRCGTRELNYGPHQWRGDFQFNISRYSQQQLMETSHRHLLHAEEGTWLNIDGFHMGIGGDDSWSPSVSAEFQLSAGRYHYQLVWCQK

EFSNPTAQVFPDFWMSDGSC
Specific activity (Norm.) [1]: 0.4±0.1 | Activity (Norm.) ([1]; 100 µM RBG): 0.05±0.01 | Binding affinity (Norm.) [2]: 0.1±0.01 | Enzyme binding (Norm.) [3]: 0.4 | Enzyme activity (Norm.) [4]: 0.7

PASMFSYFKKQGYYYKLGSC
Specific activity (Norm.) [1]: 0.5±0.1 | Activity (Norm.) ([1]; 100 µM RBG): 0.3±0.06 | Binding affinity (Norm.) [2]: 0.5±0.1 | Enzyme binding (Norm.) [3]: 63.9 | Enzyme activity (Norm.) [4]: 2.3 | Surface specific activity (Norm.) [4]: 0.16

QYHHFMNLKRQGRAQAYGSC [QYHH]
Kd [5]: ~4 nM | Km [6]: 250 µM

RVFKRYKRWLHVSRYYFGSC
Specific activity (Norm.) [1]: 0.1±0.01 | Activity (Norm.) ([1]; 100 µM RBG): 0.1±0.01 | Binding affinity (Norm.) [2]: 0.9±0.05 | Enzyme binding (Norm.) [3]: 50.3 | Enzyme activity (Norm.) [4]: 0.9 | Surface specific activity (Norm.) [4]: 0.08

YHNNPGFRVMQANKLHHGSC [Peptide Q12A]
specific activity increase of bound β-Gal compared to YHNN lead peptide at pH 6 ([7]; microarray incubated one hour at pH 6 and assayed at that pH): 4.1 fold | specific activity increase of bound β-Gal compared to YHNN lead peptide at pH 9 ([7]; microarray incubated one hour at pH 9 and assayed at that pH): 2.8 fold

YHNNPGFRVMQQNKLHHGSC [YHNN]
Kd [5]: ~5 nM | Km [6]: ~240 µM

YHNNPGFRYMQQNKLHHGSC [Peptide V9Y]
specific activity of immobilized β-Gal relative to YHNN [1, 8]: ~2 fold | total bound enzymatic activity relative to the NHS surface [1, 9]: ~12 fold | total bound enzymatic activity relative to the amine surface [1, 9]: more than 5 fold | total activity of the bound enzyme relative to YHNN ([1]; peptide-modified aminated microwell, 100 µM RBG): ~5 fold | total bound enzyme activity compared with YHNN ([1]; single-point variants on aminated microwell surfaces): improvement | binding of immobilized β-Gal relative to YHNN [2, 8]: ~2 fold | binding of β-Gal relative to YHNN lead peptide [3, 10]: 1.5 fold | specific activity of bound β-Gal relative to YHNN lead peptide [4, 10]: ~3 fold
